This is an account of results in a melting point compilation (Tetko et al.; mined from patent text by program, amines drawn as free bases though some values may be those of a salt).

Structures are written as SMILES.

By melting point is commonly meant the temperature, or range, at which the solid turns liquid.

Take `C[C@@H]1N(c2ccc(C#N)c(Cl)c2)C(=O)C[C@@]1(O)C1CC1`: the melting point was in the range of 93 to 100 °C. The value for `CCOC(=O)C(=O)c1cc(C)c(C(=O)c2ccccc2[N+](=O)[O-])n1C` was 138 to 140 °C. The value for `CC1CC(C(=O)Nc2ccccc2)(C(=O)OC(C)(C)C)N(C(=O)CNC(=O)Nc2cccc(C(=O)O)c2)C1c1ccccc1` (centres undefined) was 238 °C; that for `CC(C)(C)OC(=O)N1CCC(Sc2cc(C(C)(C)C)c(O)c(C(C)(C)C)c2)CC1` was 151 to 152 °C; that for `O=[N+]([O-])c1cc(-c2nnn[nH]2)ccc1OCc1ccccc1` was 178 to 180 °C. To `COC(=O)/C=C(\C)C(C)Sc1nc(N)cc(Cl)n1` (centres undefined) belongs 124 to 126 °C. In turn, `Nc1ccc(F)c(NC(=O)C(F)(F)F)c1` displayed a melting point of 116 to 118 °C. The molecule `O=C(O)C1=CCCCC1C(=O)O` (centres undefined) displayed a melting point of 201 to 203 °C. To `CSc1nc(NCc2ccc(Br)cc2)n2ncc(C(C)C)c2n1` belongs 171 to 172 °C; to `Cc1oc(C(C)(C)C)nc1CCl`, 41 to 44 °C; to `Cc1noc(C)c1C(=O)Nc1ccc(-n2ccc(C(F)(F)F)n2)cc1`, 177 to 178 °C.

Regarding `CCCCCN1C(=O)C2(COc3cc4c(cc32)OCO4)c2c(C(=O)Nc3cccc(OC)c3)cccc21` (centres undefined), the melting point fell in the range of 173 to 175 °C. For the molecule `O=C(Nc1ccccc1N1CCc2cc(Cl)ccc21)c1ccccc1`, the melting point lay within 44 to 46 °C. The value for `CCCN1C(=O)C2(CC)CC(c3ccc([N+](=O)[O-])cc3)(C2)C1=O` was 121 to 122 °C. To `Cc1cccc2c(=O)n3c(nc12)C(=O)c1ccccc1-3` belongs 247 to 248 °C; to `COc1ccc(Br)c2c1C[C@H](N(Cc1ccccc1)Cc1ccccc1)CC2`, 100 to 101 °C; to `CCCCCC1(C)OCc2c1cnc(C)c2O` (centres undefined), 222 °C. The value for `CN1CC2(CCN(Cc3ccccc3)CC2)OC1=O` was 137 to 138 °C.

`Nc1ccc(N2C(=O)CCCC2=O)cc1` gave a melting point of 214 to 215 °C. In turn, `O=c1[nH]c2cc(Cl)ccc2c(=O)c(-c2ccc([N+](=O)[O-])cc2)c1O` displayed a melting point of 310 to 312 °C.

Consider `CCN(CC)c1ccc2c(c1)[C@@H]1[C@H](C2)c2ccc(N(CC)CC)cc2N1C(C)=O` (relative stereo), for which the melting point fell in the range of 137 to 138 °C. The value for `CN1C(=O)CC[C@]2(C)c3ccc(Sc4nc5cc(Cl)ccc5s4)cc3CC[C@@H]12` was 179 to 180 °C; that for `COC(=O)C(C)(C)C(=O)OCOC1=C(C(=O)Nc2ccccn2)N(C)S(=O)(=O)c2ccccc21` was 112 to 114 °C. To `NCc1ccc(Br)nc1` belongs 57 to 58 °C.

In turn, `COC(=O)c1cc2cc(OC)c(OC)cc2c(-c2cccnc2)c1C(=O)OC` gave a melting point of 95 to 96 °C. The value for `Cc1cc(Oc2c(Cl)cc(C(F)(F)F)cc2Cl)ccc1S(=O)(=O)C(F)(F)F` was 121 to 122 °C; that for `CC(C)n1nc(-c2sc(NC(=O)c3ccccc3Cl)nc2-c2ccccc2)ccc1=O` was 220 to 221 °C; that for `COCCNC(=O)C1CCCN1S(=O)(=O)c1ccc(Cl)c(COc2cccc3ccc(C)nc23)c1Cl` (centres undefined) was 107 °C.

For the molecule `CN(C)Cc1cc(OCCCO)cs1`, the melting point is 32 to 34 °C. Take `C[C@@H]1CCCN1CCCOc1ccc(C(=O)Cc2ccccn2)cc1`: the melting point is 40 to 42 °C. To `CC(=O)OCC(=O)C1(OC(=O)c2ccccc2)CCC2C3CC(C)C4=CC(=O)C=CC4(C)C3C(O)CC21C` (centres undefined) belongs 258 °C. `Cc1nn(-c2ccc(C(F)(F)F)cn2)cc1COc1ccc(OC(C)(C)C(=O)O)cc1`: the melting point was 106 to 107 °C. The value for `CCOC(=O)C1=C(C)NC(O)(c2ccc([N+](=O)[O-])cc2)C(C(=O)OCC)C1c1cccc([N+](=O)[O-])c1` (centres undefined) was 196 to 197 °C; that for `O=C(O)COc1ccc2c(-c3ccc(Cl)cc3)noc2c1Cl` was 254 to 257 °C; that for `CCOC(=O)C(Cc1cc2c([N+](=O)[O-])cccc2[nH]1)[N+](=O)[O-]` (centres undefined) was 110 to 112 °C. To `COc1cc(I)c(C=O)cc1OC(C)C` belongs 75 to 76 °C.

As to `CC(C)(C)c1ccc(C2(C(N)=O)CC2)cc1`, the melting point is 178 to 180 °C. To `O=CNNc1ccnc2c(NC(=O)c3c(Cl)cccc3Cl)cccc12` belongs 261 to 263 °C. `O=C(O)C(=O)c1ccc(CCCOc2ccc3ccccc3c2)cc1` registered a melting point of 151 to 154 °C. `N#Cc1cccc2c1CCc1cc(C(F)(F)F)ccc1S2`: the melting point is 113 to 114 °C. To `O=C(O)CCNC(=O)C(=Cc1ccc(-c2ccccc2)cc1)CS` belongs 125 °C; to `Cc1ccc(N2CN(C)CNC2=S)cc1`, 176 to 178 °C; to `Cc1[nH]nc(Nc2ccccc2)c1C(=O)OC(C)C`, 138 to 139 °C. To `O=[N+]([O-])c1cccc(/C=C/c2nc(C3CCCC3)cs2)c1` belongs 65 to 70 °C. The value for `O=c1[nH]c2cc(Cl)ccc2c(=O)n1S(=O)(=O)c1ccccc1Cl` was 275 to 276 °C. In the case of `CCOC(=O)CCC12CCC(=O)N1C(=O)CC2`, the melting point was 104 to 105 °C. The value for `CC(=O)N1CCc2c([nH]c3ccccc23)C1` was 240 to 241 °C. For `CCN(CC)c1ccc(/C=C(\C)c2ccc3c(c2)C(C)(C)CCC3(C)C)cc1`, the melting point was 89 to 90 °C. Consider `C=C(F)c1cc(O)cc2nc(-c3ccc(O)c(F)c3)oc12`, for which the melting point is 213 to 214 °C. In the case of `CC(=O)Oc1c(C2CCN(CCCCNC(=O)c3ccc(-c4ccc(C#N)cc4)cc3)CC2)ccc2ccccc12`, the melting point was 115 to 120 °C. The value for `CC(C)(C)c1ccc(-c2cc(-c3cccs3)[nH]n2)cc1` was 61 to 65 °C. The molecule `CN1CCc2nc3cc(Cl)ccc3c(NNc3ccccc3)c2C1` yielded a melting point of 175 to 178 °C.

On to `O=C(O)c1cc2cc(Cl)ccc2nc1NC(Cc1c[nH]c2cc(F)ccc12)C(=O)O` (centres undefined), for which the melting point was 170 to 174 °C. As to `CCSc1oc2ccccc2c(=S)c1C#N`, the melting point was 175 to 179 °C.

Molecule `O=S(=O)(NCCCCOc1ccc(-n2ccnc2)cc1)c1cccc2cccnc12` displayed a melting point of 131 to 133 °C. To `CC(C#N)N1CCC(C(=O)c2ccc(F)cc2)CC1` (centres undefined) belongs 127 °C; to `c1ccc2ncc(N3CCNCC3)cc2c1`, 87.7 to 88.5 °C. The value for `COC(=C1C2CC3CC1CC(Cl)(C3)C2)c1cc(O)cc(Cl)c1` was 130 °C. To `Cl[Si](Cl)(Cl)Cc1ccc(-c2ccccc2)cc1` belongs 60 to 65 °C; to `Cc1ccc(-c2ccc3c(c2)C=C(C(=O)O)CCO3)cc1`, 255 to 256 °C; to `O=C(O)COc1c(-c2cccc(Cl)c2)cc(C(=O)NCCCCCCCCOCc2ccc(Cl)cc2)cc1-c1cccc(Cl)c1`, 128 to 131 °C. In the case of `Nc1cc(S(=O)(=O)CCO)ccc1Nc1ccc(N)c(S(=O)(=O)O)c1`, the melting point is 254 °C. To `N#Cc1c(Cl)c(Cl)c(Oc2ccccc2)c(Cl)c1C#N` belongs 147 to 150 °C; to `COCOc1ccc(Cl)c(F)c1C=O`, 44 to 49 °C; to `O=C(CCCCCCNC(=O)c1ccc(C(F)(C(=O)Nc2cccc3cccnc23)C(=O)Nc2cccc3cccnc23)cc1)NO`, 120 to 122 °C.

`OC(CNCc1ccccc1)C(c1ccccc1)c1ccccc1` (centres undefined) had a melting point of 123 to 124 °C. The value for `CC(C)C[C@H](NS(=O)(=O)c1ccc2c(c1)Sc1ccccc1O2)C(=O)O` was 120 to 130 °C; that for `O=C(CCCCCCOc1ccc2c(c1)[nH]c1ccccc12)NO` was 198 °C. As for `N#CC1=C(c2cccs2)Nc2n[nH]cc2C1c1cccc(Cl)c1Cl` (centres undefined), the melting point came to 232 °C. To `CN1CCC(C(=O)Nc2ccc(CN(C)C3CCOCC3)cc2)=Cc2cc(-c3ccc(OC(F)(F)F)cc3)ccc21` belongs 182 to 183 °C.

As for `CCCCc1oc2ccccc2c1C(O)c1cc(I)c(OCCN(CC)CC)c(I)c1` (centres undefined), the melting point lay in the range of 106 to 107 °C.

Regarding `COC(=O)c1ccccc1Oc1ccc(C)cc1`, the melting point lay in the range of 31 to 34 °C. To `CCOC(=O)C(=CNc1coc2ccccc2c1=O)C(=O)OCC` belongs 155 to 157 °C; to `O=C(NC(Cc1ccc(OCc2ccccc2)cc1)C(=O)O)c1cn2nc(SCc3ccccc3)ccc2n1` (centres undefined), 178 to 179 °C. The value for `CCOCc1nc2c(N)nc3cc(-n4cccn4)ccc3c2n1CCCOC` was 159 to 160 °C; that for `COCn1c(-c2nccs2)c(Cl)c2cccc(NS(=O)(=O)c3cccs3)c21` was 128 to 129 °C; that for `CC(C)c1ccc(S(=O)(=O)n2c(CCCC(=O)O)cc3nc(Cl)ccc32)cc1` was 155 °C. Consider `CCCCCCCCCCCCCCOC(=O)c1ccc(OC)c(N)c1`, for which the melting point is 54 to 56 °C. The value for `CN1CC[C@@H](c2c(O)cc(O)c3c(=O)cc(-c4ccc(N)cc4Br)oc23)[C@@H]1CO` was 208 °C; that for `CCC(OCc1ccc(-c2ccc(Cl)cc2)cc1)(C(=O)O)c1ccccc1` (centres undefined) was 128 to 130 °C; that for `Oc1c2c(nn1-c1nc3ccc(F)cc3s1)CCc1ccccc1-2` was 246 to 247 °C.

In turn, `CC(C)CC1Cc2cc(OCC(=O)O)c(Cl)c(Cl)c2C1=O` (centres undefined) displayed a melting point of 192 °C. To `O=c1oc2ncccc2n1CCBr` belongs 109 to 110 °C; to `CCCCCCOc1c(C=O)ccc2c1C=CC(C=O)(OCCCCCC)C2` (centres undefined), 50 to 52 °C; to `Clc1ccc(-c2ccn3nccc3n2)cc1`, 178 to 180 °C.

As for `c1ccc(CNc2nc(-n3cncn3)nc3ccccc23)cc1`, the melting point is 193 to 195 °C.

With `CCC1(F)CN(C2CCCC2)c2nc(Nc3ccc(C(=O)NC4CCN(C)CC4)cc3OC)ncc2N(C)C1=O` (centres undefined), the melting point lay within 149 to 153 °C. To `OC(Cn1ccnc1)(Cn1cncn1)c1ccc(Cl)cc1Cl` (centres undefined) belongs 169 to 170 °C; to `CC1(C)[C@@H](CNC(=O)c2ccccc2F)CC[C@@]1(C)NCC(=O)N1C[C@@H](F)C[C@H]1C#N`, 123 to 127 °C.
